Publication PMC9403976, “Elucidating the path to Plasmodium prolyl-tRNA synthetase inhibitors that overcome halofuginone resistance” (Nature Communications, 2022)
Values joined by “and” are separate entries in the source; they are usually repeats but may differ in a detail not shown here. Equal values may be shown once.

What was measured:
[1] = test system: halofuginone-induced P. falciparum (elevated proline homeostasis); test: P. falciparum ABS growth assay, SYBR Green, 72 h, halofuginone-induced parasites; assay type: cell-based, Plasmodium falciparum; conditions: Halofuginone-Induced
Procedure, shortened: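 EC50 came from SYBR Green 1 fluorescence measured 72 h after dosing in triplicate dose-response. Dihydroartemisinin at 10 μM set full kill and untreated wells set full growth. Cultures of the Dd2 lines were seeded at 1% hematocrit and 1% parasitemia in Albumax-supplemented RPMI.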

[2] = target: HsProRS (Homo sapiens, UniProt P07814); test: TR-FRET ligand displacement assay with tracer MAT379 (CoraFluor-1-Halo and anti-His6 antibody formats); assay type: binding; set-up: made in house; host or cells: E. coli SoluBL-21; conditions: for TR-FRET dose-response, normalized signal (SI Fig 11): individual replicates; for normalized TR-FRET signal (dose-response replicates): SI Fig 15, antibody format
Chain of HsProRS (P07814 996-1512): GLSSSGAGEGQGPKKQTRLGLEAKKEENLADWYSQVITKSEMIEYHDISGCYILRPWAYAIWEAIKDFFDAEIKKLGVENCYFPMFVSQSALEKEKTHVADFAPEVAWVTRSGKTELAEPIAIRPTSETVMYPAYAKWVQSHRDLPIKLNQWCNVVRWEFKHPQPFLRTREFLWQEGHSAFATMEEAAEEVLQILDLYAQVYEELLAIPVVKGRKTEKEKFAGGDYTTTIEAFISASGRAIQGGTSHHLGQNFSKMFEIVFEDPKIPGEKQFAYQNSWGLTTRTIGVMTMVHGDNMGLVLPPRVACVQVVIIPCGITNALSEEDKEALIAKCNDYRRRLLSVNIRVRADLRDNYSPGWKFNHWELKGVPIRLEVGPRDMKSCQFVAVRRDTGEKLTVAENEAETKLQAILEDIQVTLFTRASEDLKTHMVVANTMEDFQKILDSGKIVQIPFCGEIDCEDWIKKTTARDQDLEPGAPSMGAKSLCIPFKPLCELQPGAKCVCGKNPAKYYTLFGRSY

[3] = Log[inhibitor] (M) -7.602, listed as Halofuginone (1)
[4] = Log[inhibitor] (M) -5.000, listed as Halofuginone (1)

With O=C(CC1NCCCC1O)Cn1cnc2cc(Br)c(Cl)cc2c1=O (centres unmarked) [Halofuginone] the “parasite growth, replicate wells (Fig 1b)” value (from here on “parasite growth”) ([1]; Log[inhibitor] (M) -7.000) was 1.00E+00, the “parasite growth” value ([1]; Log[inhibitor] (M) -7.301) was 6.00E+00 and the “parasite growth” value [1, 3] was 2.30E+01 and 2.20E+01 (2×). The “parasite growth” value ([1]; Log[inhibitor] (M) -7.903, listed as Halofuginone (1)) was 8.60E+01 (2×) and 9.10E+01, the “parasite growth” value ([1]; Log[inhibitor] (M) -8.204, listed as Halofuginone (1)) was 1.04E+02 and 1.02E+02 (2×) and the “parasite growth” value ([1]; Log[inhibitor] (M) -8.505, listed as Halofuginone (1)) was 1.05E+02 and 1.03E+02 and 9.50E+01. For the same molecule, the “parasite growth” value ([1]; Log[inhibitor] (M) -8.806, listed as Halofuginone (1)) was 9.20E+01 and 9.40E+01 and 9.50E+01, the “parasite growth” value ([1]; Log[inhibitor] (M) -9.107, listed as Halofuginone (1)) was 9.60E+01 and 9.70E+01 and 9.40E+01 and the “parasite growth” value ([1]; Log[inhibitor] (M) -9.408, listed as Halofuginone (1)) was 9.80E+01 and 9.60E+01 and 9.50E+01. For the same molecule, the “parasite growth” value ([1]; Log[inhibitor] (M) -9.709, listed as Halofuginone (1)) was 9.90E+01 and 1.00E+02 and 9.80E+01, the “parasite growth” value ([1]; Log[inhibitor] (M) -10.010, listed as Halofuginone (1)) was 1.00E+02 and 9.60E+01 and 9.90E+01 and the “parasite growth” value ([1]; Log[inhibitor] (M) -10.311, listed as Halofuginone (1)) was 9.90E+01 (2×) and 1.00E+02. The “normalized TR-FRET signal (Fig 2j)” value ([2]; Halofuginone series, Log[inhibitor] (M) -5.301) was 4.67E-01 and 4.34E-01 and 5.01E-01, the “normalized TR-FRET signal (Fig 2j)” value ([2]; Halofuginone series, Log[inhibitor] (M) -5.602) was 6.44E-01 and 5.92E-01 and 5.65E-01 and the “normalized TR-FRET signal (Fig 2j)” value ([2]; Halofuginone series, Log[inhibitor] (M) -7.107) was 1.11E+00 and 9.45E-01 and 9.98E-01. For the same molecule, the Kd ([2]; HsProRS - best Kd, SI Fig 16a, values on -log scale) was 0.225 nM, the “TR-FRET dose-response, normalized signal (SI Fig 11)” value [2, 4] was 1.22E-01 and 1.04E-01 and 9.99E-02 and the “normalized TR-FRET ligand displacement signal, dose-response replicates (SI Fig 6)” value [2, 4] was 8.67E-01 and 9.21E-01 and 8.89E-01. For the same molecule, the “normalized TR-FRET ligand displacement signal, dose-response replicates (SI Fig 6)” value ([2]; Log[inhibitor] (M) -5.258, listed as Halofuginone (1)) was 9.18E-01 and 9.29E-01 and 9.59E-01, the “TR-FRET dose-response, normalized signal (SI Fig 11)” value ([2]; Log[inhibitor] (M) -5.301, listed as Halofuginone (1)) was 2.23E-01 and 2.19E-01 and 2.35E-01 and the “normalized TR-FRET ligand displacement signal, dose-response replicates (SI Fig 6)” value ([2]; Log[inhibitor] (M) -5.517, listed as Halofuginone (1)) was 9.53E-01 and 1.02E+00 (2×). The “TR-FRET dose-response, normalized signal (SI Fig 11)” value ([2]; Log[inhibitor] (M) -5.602, listed as Halofuginone (1)) was 3.79E-01 and 3.48E-01 and 2.87E-01, the “normalized TR-FRET ligand displacement signal, dose-response replicates (SI Fig 6)” value ([2]; Log[inhibitor] (M) -5.775, listed as Halofuginone (1)) was 1.06E+00 and 1.00E+00 and 1.07E+00 and the “normalized TR-FRET signal (Fig 2j)” value ([2]; Log[inhibitor] (M) -5.903) was 7.44E-01 and 8.56E-01 and 7.84E-01. The “TR-FRET dose-response, normalized signal (SI Fig 11)” value ([2]; Log[inhibitor] (M) -5.903, listed as Halofuginone (1)) was 5.30E-01 and 5.36E-01 and 5.41E-01, the “normalized TR-FRET ligand displacement signal, dose-response replicates (SI Fig 6)” value ([2]; Log[inhibitor] (M) -6.018, listed as Halofuginone (1)) was 1.05E+00 and 1.10E+00 and 1.02E+00 and the “normalized TR-FRET signal (Fig 2j)” value ([2]; Log[inhibitor] (M) -6.204) was 8.25E-01 and 9.54E-01 and 7.75E-01. The “TR-FRET dose-response, normalized signal (SI Fig 11)” value ([2]; Log[inhibitor] (M) -6.204, listed as Halofuginone (1)) was 7.34E-01 and 7.40E-01 and 6.73E-01, the “normalized TR-FRET ligand displacement signal, dose-response replicates (SI Fig 6)” value ([2]; Log[inhibitor] (M) -6.281, listed as Halofuginone (1)) was 1.08E+00 and 1.03E+00 and 1.07E+00 and the “normalized TR-FRET signal (Fig 2j)” value ([2]; Log[inhibitor] (M) -6.505) was 1.04E+00 and 9.85E-01 and 1.03E+00. The “TR-FRET dose-response, normalized signal (SI Fig 11)” value ([2]; Log[inhibitor] (M) -6.505) was 7.32E-01, the “TR-FRET dose-response, normalized signal (SI Fig 11)” value ([2]; Log[inhibitor] (M) -6.505, listed as Halofuginone (1)) was 7.86E-01 and 7.92E-01 and the “normalized TR-FRET ligand displacement signal, dose-response replicates (SI Fig 6)” value ([2]; Log[inhibitor] (M) -6.535, listed as Halofuginone (1)) was 1.04E+00 and 1.03E+00 and 9.64E-01. For the same molecule, the “normalized TR-FRET ligand displacement signal, dose-response replicates (SI Fig 6)” value ([2]; Log[inhibitor] (M) -6.796, listed as Halofuginone (1)) was 1.04E+00 and 1.03E+00 (2×), the “normalized TR-FRET signal (Fig 2j)” value ([2]; Log[inhibitor] (M) -6.806) was 9.63E-01 and 9.86E-01 and 9.32E-01 and the “TR-FRET dose-response, normalized signal (SI Fig 11)” value ([2]; Log[inhibitor] (M) -6.806, listed as Halofuginone (1)) was 8.94E-01 and 8.80E-01 and 8.52E-01. For the same molecule, the “normalized TR-FRET ligand displacement signal, dose-response replicates (SI Fig 6)” value ([2]; Log[inhibitor] (M) -7.056, listed as Halofuginone (1)) was 1.05E+00 and 1.11E+00 and 1.07E+00, the “TR-FRET dose-response, normalized signal (SI Fig 11)” value ([2]; Log[inhibitor] (M) -7.107, listed as Halofuginone (1)) was 9.88E-01 and 8.65E-01 and 9.16E-01 and the “normalized TR-FRET ligand displacement signal, dose-response replicates (SI Fig 6)” value ([2]; Log[inhibitor] (M) -7.319, listed as Halofuginone (1)) was 1.04E+00 (2×) and 1.02E+00. For the same molecule, the “normalized TR-FRET signal (Fig 2j)” value ([2]; Log[inhibitor] (M) -7.408) was 1.05E+00 and 9.28E-01 and 8.93E-01, the “TR-FRET dose-response, normalized signal (SI Fig 11)” value ([2]; Log[inhibitor] (M) -7.408, listed as Halofuginone (1)) was 9.10E-01 and 9.40E-01 and 9.15E-01 and the “normalized TR-FRET ligand displacement signal, dose-response replicates (SI Fig 6)” value ([2]; Log[inhibitor] (M) -7.553) was 1.10E+00. The “normalized TR-FRET ligand displacement signal, dose-response replicates (SI Fig 6)” value ([2]; Log[inhibitor] (M) -7.553, listed as Halofuginone (1)) was 1.16E+00, the “normalized TR-FRET signal (Fig 2j)” value ([2]; Log[inhibitor] (M) -7.709) was 9.59E-01 and 9.28E-01 and 9.82E-01 and the “TR-FRET dose-response, normalized signal (SI Fig 11)” value ([2]; Log[inhibitor] (M) -7.709, listed as Halofuginone (1)) was 9.34E-01 (2×) and 9.38E-01. For the same molecule, the “normalized TR-FRET ligand displacement signal, dose-response replicates (SI Fig 6)” value ([2]; Log[inhibitor] (M) -7.796, listed as Halofuginone (1)) was 1.10E+00 and 1.04E+00 and 1.03E+00, the “normalized TR-FRET signal (Fig 2j)” value ([2]; Log[inhibitor] (M) -8.010) was 9.03E-01 and 1.00E+00 and 9.95E-01 and the “TR-FRET dose-response, normalized signal (SI Fig 11)” value ([2]; Log[inhibitor] (M) -8.010, listed as Halofuginone (1)) was 9.18E-01 and 9.71E-01 and 9.55E-01. For the same molecule, the “normalized TR-FRET ligand displacement signal, dose-response replicates (SI Fig 6)” value ([2]; Log[inhibitor] (M) -8.097, listed as Halofuginone (1)) was 1.01E+00 and 1.03E+00 and 1.08E+00, the “normalized TR-FRET signal (Fig 2j)” value ([2]; Log[inhibitor] (M) -8.311) was 9.63E-01 and 1.06E+00 and 1.04E+00 and the “TR-FRET dose-response, normalized signal (SI Fig 11)” value ([2]; Log[inhibitor] (M) -8.311, listed as Halofuginone (1)) was 9.28E-01 and 9.37E-01 and 9.39E-01. For the same molecule, the “normalized TR-FRET ligand displacement signal, dose-response replicates (SI Fig 6)” value ([2]; Log[inhibitor] (M) -8.398, listed as Halofuginone (1)) was 1.06E+00 and 1.03E+00 and 1.05E+00, the “normalized TR-FRET ligand displacement signal, dose-response replicates (SI Fig 6)” value ([2]; Log[inhibitor] (M) -8.585, listed as Halofuginone (1)) was 1.04E+00 and 1.03E+00 and 1.02E+00 and the “normalized TR-FRET signal (Fig 2j)” value ([2]; Log[inhibitor] (M) -8.612) was 1.10E+00 and 1.01E+00 and 9.98E-01. For the same molecule, the “TR-FRET dose-response, normalized signal (SI Fig 11)” value ([2]; Log[inhibitor] (M) -8.612, listed as Halofuginone (1)) was 9.43E-01 and 9.93E-01 and 8.80E-01, the “normalized TR-FRET signal (Fig 2j)” value ([2]; Log[inhibitor] (M) -8.913) was 1.04E+00 and 1.15E+00 and 9.02E-01 and the “TR-FRET dose-response, normalized signal (SI Fig 11)” value ([2]; Log[inhibitor] (M) -8.913, listed as Halofuginone (1)) was 9.29E-01 and 9.23E-01 and 1.01E+00. The “normalized TR-FRET signal (Fig 2j)” value ([2]; Log[inhibitor] (M) -9.214) was 9.13E-01 and 9.87E-01 and 1.00E+00, the “TR-FRET dose-response, normalized signal (SI Fig 11)” value ([2]; Log[inhibitor] (M) -9.214, listed as Halofuginone (1)) was 1.03E+00 and 9.64E-01 and 9.56E-01 and the “normalized TR-FRET signal (dose-response replicates)” value ([2]; Log[inhibitor] (M) -7, listed as Halofuginone (1)) was -5.10E-02 and 1.45E-01 and 6.11E-02 and -8.68E-02 and 8.71E-02 and -1.63E-01. For the same molecule, the “normalized TR-FRET signal (dose-response replicates)” value ([2]; Log[inhibitor] (M) -7.301, listed as Halofuginone (1)) was -1.11E-01 and 1.65E-02 and 1.81E-01 and 1.03E-01 and -9.48E-02 and 1.44E-01, the “normalized TR-FRET signal (dose-response replicates)” value [2, 3] was -2.32E-02 and 2.15E-01 and 1.05E-01 and 1.32E-01 and 1.04E-01 and 2.19E-02 and the “normalized TR-FRET signal (dose-response replicates)” value ([2]; Log[inhibitor] (M) -7.902, listed as Halofuginone (1)) was 1.55E-01 and 5.85E-02 and 2.37E-01 and 1.20E-01 and -3.85E-02 and 1.09E-01. The “normalized TR-FRET signal (dose-response replicates)” value ([2]; Log[inhibitor] (M) -8.206, listed as Halofuginone (1)) was 1.08E-02 and 1.11E-01 and 2.70E-01 and 1.81E-01 and 6.79E-02 and 2.75E-01, the “normalized TR-FRET signal (dose-response replicates)” value ([2]; Log[inhibitor] (M) -8.507, listed as Halofuginone (1)) was 1.46E-01 and 1.20E-01 and 1.73E-01 and 3.30E-01 and 1.53E-01 and 2.25E-01 and the “normalized TR-FRET signal (dose-response replicates)” value ([2]; Log[inhibitor] (M) -8.797, listed as Halofuginone (1)) was 4.78E-02 and 3.34E-01 and 2.48E-01 and 1.28E-01 and 3.36E-01 and 3.00E-01. For the same molecule, the “normalized TR-FRET signal (dose-response replicates)” value ([2]; Log[inhibitor] (M) -9.098, listed as Halofuginone (1)) was 4.47E-01 and 3.74E-01 and 3.80E-01 and 4.11E-01 and 4.02E-01 and 4.65E-01 and the “normalized TR-FRET signal (dose-response replicates)” value ([2]; Log[inhibitor] (M) -9.407, listed as Halofuginone (1)) was 2.38E-01 and 7.71E-01 and 7.58E-01 and 8.49E-01 and 6.67E-01 and 6.46E-01.
